# Experimental data: patent US8003689B2, “Metabolites of selective androgen receptor modulators and methods of use thereof” (GTx, Inc., priority 2008, dated 2011)
# Tests used:
# [1] = Phase I microsome reactions of Compound II, human; format: in vitro ADME; conditions: Human liver microsomes; not absolutely quantitative (n = 2)
# Experimental: (§1) Test compound stock solutions were prepared in acetonitrile at 10 mM, 200 times (200×) the final concentration. The stock solutions were added in incubation mixtures to obtain the final drug concentration of 50 μM, containing 0.5% acetonitrile. A concentration of 50 μM was utilized to allow for detection of possible minor metabolites (select studies were run at 10 μM for confirmatory purposes). Human, monkey, dog, rat, mouse microsomes were all utilized at a final concentration of 1.0 mg/ml. Duplicate wells were used for each time point (0 and 120 minutes). Incubation was conducted at 37° C. in a shaking water bath. The final volume for each reaction was 200 μl, composed of: 66 μl of 0.2 M KPO4 buffer, (pH 7.4); 73 μl of H2O, 10 μl of 20 mg/ml microsome stock; 1.0 μl of 10 mM compound stock, and 50 μl of NRS solution. The NRS solution consisting of glucose-6-phosphate dehydrogenase, NADP+, MgCl2, and glucose-6-phosphate, was prepared as described in manufacturer's instructions. […]
# (§2) The mass spectrometers were operated in EMS mode in order to detect all possible metabolites. […] Intensity of putative metabolite was semi-quantitated using the peak area of the metabolites in XIC, which was subtracted with the peak area of time zero control at the same retention time with the metabolites.
# [2] = Phase I microsome reactions of Compound II, monkey; format: in vitro ADME; conditions: Monkey liver microsomes; not absolutely quantitative (n = 2)
# Experimental: as §1, §2
# [3] = Phase I microsome reactions of Compound II, dog; format: in vitro ADME; conditions: Dog liver microsomes; not absolutely quantitative (n = 2)
# Experimental: as §1, §2
# [4] = Phase I microsome reactions of Compound II, rat; format: in vitro ADME; conditions: Rat liver microsomes; not absolutely quantitative (n = 2)
# Experimental: as §1, §2
# [5] = Phase I microsome reactions of Compound II, mouse; format: in vitro ADME; conditions: Mouse liver microsomes; not absolutely quantitative (n = 2)
# Experimental: as §1, §2
# [6] = Phase I and II microsome reactions (+UDPGA) of Compound II, human; format: in vitro ADME; conditions: Human liver microsomes (+UDPGA)
# Experimental: (§3) For microsome reactions performed under conditions allowing for both phase I and II metabolism, the initial procedure and reaction conditions were followed similarly as described above. Additional cofactors were also included in each reaction to maximize the potential for in vitro glucuronidation to occur. UDPGA was added at a final concentration of 5.0 mM. Saccharolactone (β-glucuronidase inhibitor) and alamethicin (pore forming peptide) were added to each reaction at a final concentration of 5.0 mM and 50 μg/ml, respectively.
# (§4) Each 200 μl microsomal reaction solution was composed of: 66 μl of 0.2 M KPO4 buffer, (pH 7.4); 50 μl of NRS solution (as described above); 66 μl of UDPGA (15 mM stock); 5.0 μl of saccharolactone (200 mM stock); 0.5 μl of alamethicin (20 mg/ml); 0.6 μl of MgCl2 (1 M stock); and 10 μl of microsomes (20 mg/ml stock).
# (§5) At the end of incubation, 100 μl of reaction solution under incubation was transferred to a sample well containing 100 μl of ice cold acetonitrile to quench the reaction. […]
# as §2
# [7] = Phase I and II microsome reactions (+UDPGA) of Compound II, monkey; format: in vitro ADME; conditions: Monkey liver microsomes (+UDPGA)
# Experimental: as §3, §4, §5, §2
# [8] = Phase I and II microsome reactions (+UDPGA) of Compound II, dog; format: in vitro ADME; conditions: Dog liver microsomes (+UDPGA)
# Experimental: as §3, §4, §5, §2
# [9] = Phase I and II microsome reactions (+UDPGA) of Compound II, rat; format: in vitro ADME; conditions: Rat liver microsomes (+UDPGA)
# Experimental: as §3, §4, §5, §2
# [10] = Phase I and II microsome reactions (+UDPGA) of Compound II, mouse; format: in vitro ADME; conditions: Mouse liver microsomes (+UDPGA)
# Experimental: as §3, §4, §5, §2
# human hepatocytes = experiment: Hepatocyte assay of Compound II, human; format: in vitro ADME
# Experimental: (§6) The stock solutions (10 mM in acetonitrile) for the test compounds were diluted in the incubation media to a working concentration of 100 μM (2×). Thawing frozen hepatocytes was followed by performing Percoll purification as described in manufacturer's manual. Primary hepatocytes were resuspended in incubation media and viability was measured using trypan blue exclusion method. The initial viability score was registered as ‘T0’ (time point of 0 minute), and viability was required to be at least ˜70% at this point for the experiment to continue. Cells were washed a second time (60 g for 5 minutes) with supplemented DMEM and the final concentration was adjusted to […] (2×). Samples were set up in 48-well plates, using 2 wells per each time point. A trypan blue well was also set up for viability analysis at the end of study (T=120 min). 100 μl of the 2× drug solution was combined with 100 μl of the 2× hepatocyte suspension. Final concentration was […] (200,000 cells/well) and 50 μM compound. Final concentration of acetonitrile was 0.5%. […]
# as §2
# monkey hepatocytes = experiment: Hepatocyte assay of Compound II, monkey; format: in vitro ADME
# Experimental: as §6, §2
# dog hepatocytes = experiment: Hepatocyte assay of Compound II, dog; format: in vitro ADME
# Experimental: as §6, §2
# Rat Hepatocytes [11] = experiment: Hepatocyte assay of Compound II, rat; format: in vitro ADME
# Experimental: as §6, §2
# mouse hepatocytes = experiment: Hepatocyte assay of Compound II, mouse; format: in vitro ADME
# Experimental: as §6, §2
# [12] = In vitro metabolites of Compound I in rat liver microsomes; format: in vitro ADME; conditions: metabolite formed from Compound I
# Rat Hepatocytes [13] = experiment: In vitro metabolites of Compound I in rat hepatocytes; format: in vitro ADME; conditions: metabolite formed from Compound I
# [14] = Metabolic stability in primary monkey hepatocytes; format: in vitro ADME
# [15] = tested on: primary monkey hepatocytes; experiment: Metabolic stability in primary monkey hepatocytes; format: in vitro ADME
# [16] = Metabolic stability in human liver microsomes; format: in vitro ADME
# Experimental: Human liver microsomes and hepatocytes were utilized at a final concentration of 1.0 mg/ml and 1×10^6 cells/ml, respectively. Duplicate wells were used for each time point (0, 5, 10, 30, and 60 minutes). The concentrations of parent drug remaining in each well were analyzed on an MDS/Sciex API4000 Q Trap system with electrospray ionization (ESI) in the positive and/or negative SIM mode, depending on the test compound(s). […] For hepatocyte assays, cell viability was also monitored at each time point (from replicate wells) using the Trypan Blue exclusion method.
# [17] = Permeability and efflux potential across Caco-2 monolayers; parameters: Papp A→B / Papp B→A: dose or concentration left out as unconfirmed; conditions: human
# Experimental: (§7) Permeability (and efflux potential) was measured in the Apical (pH 6.5) to Basolateral (pH 7.4) and Basolateral (pH 7.4) to Apical (pH 6.5) directions across polarized, Caco-2 epithelial monolayers. Compound stocks were tested at a final concentration of […]. The concentration of drug in the receiver well was measured by LC/MS/MS using a standard curve.
# [18] = tested on: Caco-2 epithelial monolayers; experiment: as above; parameters: Papp A→B / Papp B→A: dose or concentration left out as unconfirmed
# Experimental: as §7
# CYP3A4 = CYP3A4 induction in primary human hepatocytes; format: in vitro ADME
# Experimental: (§8) Cytochrome P450 enzyme inhibition was measured using human, cDNA-expressed CYP3A4, 2D6, 2C19, 2C9, and 1A2 enzymes. Analogues of the model substrate coumarin were utilized for each isozyme, at a concentration near the apparent Km of this substrate. Compound stocks were tested using an 8-point dose-response curve in duplicate (ranging from […]). […] For microsome-based CYP inhibition measurements, all substrates were utilized at the approximate Km value. […] Duplicate wells in the induction assay were used to measure both functionality and expression of the CYP enzyme.
# CYP2C9 = CYP2C9 induction in primary human hepatocytes; format: in vitro ADME
# Experimental: as §8
# [19] = Human Liver Microsomes, Phase I
# [20] = Human Liver Microsomes, Phase I + II
smiles,measurement,setting,value
N#Cc1ccc(N)cc1Cl [Compound 151],Relative Percent of Extracted Ion Chromatogram (XIC) for Phase I metabolites of Compound II,[1],3%
same,Relative Percent of Extracted Ion Chromatogram (XIC) for Phase I metabolites of Compound II,[2],4%
same,Relative Percent of Extracted Ion Chromatogram (XIC) for Phase I metabolites of Compound II,[3],6%
same,Relative Percent of Extracted Ion Chromatogram (XIC) for Phase I metabolites of Compound II,[4],4%
same,Relative Percent of Extracted Ion Chromatogram (XIC) for Phase I metabolites of Compound II,[5],4%
same,Relative Percent of XIC for Phase I and Glucuronide Metabolites of Compound II,[6],0.8%
same,Relative Percent of XIC for Phase I and Glucuronide Metabolites of Compound II,[7],1.6%
same,Relative Percent of XIC for Phase I and Glucuronide Metabolites of Compound II,[8],2.9%
same,Relative Percent of XIC for Phase I and Glucuronide Metabolites of Compound II,[9],1.4%
same,Relative Percent of XIC for Phase I and Glucuronide Metabolites of Compound II,[10],1.1%
same,Relative Percent of XIC for Phase I and II Metabolites of Compound II,human hepatocytes,0.5%
same,Relative Percent of XIC for Phase I and II Metabolites of Compound II,monkey hepatocytes,2.2%
same,Relative Percent of XIC for Phase I and II Metabolites of Compound II,dog hepatocytes,4.7%
same,Relative Percent of XIC for Phase I and II Metabolites of Compound II,Rat Hepatocytes [11],0.9%
same,Relative Percent of XIC for Phase I and II Metabolites of Compound II,mouse hepatocytes,0.8%
C[C@@](COc1ccc(C#N)cc1)(OC1OC(C(=O)O)C(O)C(O)C1O)C(=O)Nc1ccc(C#N)c(C(F)(F)F)c1 (stereo partly drawn) [Compound 564],relative abundance of in vitro metabolites of Compound I (m/z 388),[12],1.92
same,relative abundance of in vitro metabolites of Compound I (m/z 388),Rat Hepatocytes [13],0.37
"C[C@](O)(COc1ccc(C#N)cc1)C(=O)Nc1ccc(C#N)c(C(F)(F)F)c1 [Compound I, (S)—N-(4-cyano-3-(trifluoromethyl)phenyl)-3-(4-cyanophenoxy)-2-hydroxy-2-methylpropanamide]",CLint scaled,[14],< 1 mL/min/kg
same,Half-Life,[15],Stable
same,Half-Life Phase I,[16]; [19],Stable
same,microsomal CLint,[16]; [19],< 1000 µL/min/mg
same,CLint Phase I + II,[16]; [20],<1000 µL/min/mg
same,Half-Life Phase I + II,[16]; [20],Stable
same,in vitro half-life (stability in words),"[16]; microsomal and hepatocyte assays, both phase I and phase I/II metabolic conditions",mostly stable
same,Papp B→A,[17]; Caco-2,29 ×10⁻⁶ cm/s
same,Papp A→B,"[17]; Caco-2, Permeability Classification, classified from Papp (A-B)",> 10 ×10⁻⁶ cm/s
same,efflux potential,[18]; Caco-2 permeability assays,low
same,Permeability Classification,[18]; classified from Papp (A-B),high
same,induction of CYP3A4 activity,CYP3A4,does not induce
same,induction of CYP2C9 activity,CYP2C9,does not induce
